In patent publication US11925632B2, “Isoquinoline derivatives for use in treating GLUT1 deficiency syndrome” (GLIAPHARM SA, priority 2019, dated 2024):
Entries after “also recorded” stand apart in the source; their conditions may differ.

Columns and labels:
[1] = test system: astrocytes transfected with scramble siRNA; assay: Lactate secretion, scramble siRNA astrocytes; type: cell-based, mouse; conditions: vs vehicle
Protocol: Secretion of L-lactate was measured in the extracellular medium of 96-well plated astrocytes after 90 min stimulation (at 37° C., in 5% CO2/95% air conditions) with Vehicle (DMSO), the compounds of the invention (100 nM to 100 μM) or positive control. […] Stimulation medium was composed of D5030 medium complemented with 5 mM D-glucose and 44 mM sodium bicarbonate, pH 7.2. To quantify lactate concentrations in the extracellular medium, 200 μl of a 0.2M Glycine-semicarbazide buffer (pH 10) containing 3 mM NAD and 14 U/ml LDH was added to each well of a 96-well plate containing 30 μl aliquots of extracellular medium. Samples were incubated at 37° C. for 1 h. Fluorescence intensity (340 nm excitation/450 nm emission), which represents the amount of NADH produced, was measured, and lactate concentration values were determined relative to a standard curve of L-lactate concentrations.
(§1) Scramble and GLUT1 siRNA sequences were as following:
Cells were grown in transfection medium for 3 days at 37° C. in a humidified atmosphere containing 5% CO2/95% air. After 3 days, transfection medium was replaced with DMEM D5030 supplemented with 44 mM NaHCO3 and 5 mM D-Glucose (1 ml per well).
Lactate secretion after treatment with Veh or compound of the invention (1) was measured in astrocytes transfected with scramble siRNA or GLUT1 siRNA (FIG. 4B).

[2] = test system: astrocytes transfected with GLUT1 siRNA; assay: 2-deoxyglucose (2DG) uptake, GLUT1 siRNA astrocytes (cellular model of GLUT1-DS); type: cell-based, mouse; conditions: 30 min treatment, 1 or 10 μM, vs vehicle
Protocol: Astrocytes grown on 12-well plates and transfected with either scramble siRNA or GLUT1 siRNA were used. 1 day after having replaced transfection medium (DIV13), 2DG uptake was measured after treatment for 30 min with Vehicle (0.1% DMSO) or with the compound of the invention (1) (concentrations of 1 or 10 μM). During treatment, 1 mM 2DG was added to the medium for assessment of 2DG uptake. At the end of the stimulation, medium was removed and replaced with 150 μl NaOH 0.1M, and stored at −20° C. After thawing, cells were collected using cell scraper and heated for 40 min at 85° C. Then, 150 ul HCl 0.1M and TAE buffer 200 mM was added to each condition. 20 μl were added to a transparent 96-well plate and 2DG was quantified by addition of a reaction solution containing 50 mM TAE, 50 mM KCl, 0.02% BSA, 0.1 mM NADP, 0.2 U/ml diaphorase, 2 mM resazurin and 20 U/ml glucose-6-phosphate dehydrogenase. Concentration of 2DG in samples were calculated by comparison with standard curve of deoxy-glucose-6-phosphate ranging from 0 to 1 nmoles.
as §1
Cells were grown in transfection medium for 3 days at 37° C. in a humidified atmosphere containing 5% CO2/95% air. […]
2DG uptake after treatment with Veh or compound of the invention (1) was measured in astrocytes transfected with scramble siRNA or GLUT1 siRNA (FIG. 4A).

GLUT1-DS mice = assay: Rotarod motor function in GLUT1-DS transgenic mice; type: in vivo, mouse; conditions: 10 mg/kg oral daily for 19 days
Protocol: Transgenic mice on 129/SvJ genetic background in which GLUT1 has been knocked-down (GLUT1-DS mice) were used (Wang et al., […], Human Molecular Genetics, 15(7)). Mating colonies were composed of wild-type female mice and GLUT1-DS male mice, or GLUT1-DS female mice and wild-type male mice. F1 pups were genotyped after ear punching at weaning using PCR to determine genotype. Mice of 2 to 3 months of age were used.
Motor function was measured in wild-type (WT) and GLUT1-DS transgenic mice in the rotarod after 19-day long treatment with Veh. or Compound (1). Mice were administered every day orally vehicle or Compound (1) at a dose of 10 mg/kg. After 14 days of treatment, mice were exposed to rotarod training, which consisted in placing the mouse on an accelerating rotarod (4 to 40 r.p.m.) during 300 seconds. Mice that felt down before training ended, or at the end of training (300 seconds), were removed and put back to their cages. Training took place over 4 consecutive days, and on each training day mice performed 3 consecutive trials with 15 min inter-trial duration. One day after the last training (on the fifth day), mice were tested on the rotarod. Testing consisted in placing mice on the rotarod at a constant speed of 25 r.p.m. Latencies of mice before falling down were recorded.

primary astrocytes = assay: MTT mitochondrial activity assay; type: cell-based; conditions: Mus musculus, Astrocyte, 24 h treatment
Protocol: Primary cultures of cerebrocortical astrocytes were obtained from 1 to 2-day-old OF1 mouse pups (Charles River). Briefly, cortices were isolated and minced in small pieces under a dissecting microscope. The cells were incubated for 30 min at 37° C. in a solution containing 20 U/ml papain, 1 mM L-cysteine and 10 kU/ml DNase I. After dissociation, papain activity was stopped by the addition of fetal calf serum (FCS). Single-cell suspension was then obtained by mechanical dissociation, which consisted in cells trituration in a DMEM D7777 medium supplemented with 44 mm NaHCO3, 10 ml/L antibiotic/antimycotic solution and 10% FCS. The cells were seeded at an average density of ˜10′000 cells/cm^2 on poly-D-lysine coated 96- or 12-well culture plates, depending on their use, and grown in DMEM D7777 medium supplemented with 44 mm NaHCO3, 10 ml/L antibiotic/antimycotic solution and 10% FCS at 37° C. in a humidified atmosphere containing 5% CO2/95% air. Culture medium was renewed twice a week. Cells were stimulated and harvested between DIV14 and DIV17, when confluence and cell growth were optimal.
To monitor mitochondrial activity in astrocytes, which is linked to the metabolic process of glycolysis and production of lactate, astrocytes in 96-well plates were stimulated for 24 h (37° C. 5% CO2/95% air) with the compounds of the invention ranging from 0.2 to 200 μM.
After stimulation, 5 mg/ml thiazol blue tetrazolium bromide (MTT) in D5030 medium complemented with 5 mM D-glucose and 44 mM sodium bicarbonate (pH 7.2) was added to each well, and cells were incubated for 4 h at 37° C. (5% CO2). The medium was then removed and the amount of reduced MTT, i.e. formazan, solubilized in DMSO (50 μl/well) was determined using a spectrophotometer (absorbance of 570 nm).
The mitochondrial activity in primary astrocytes treated with Compounds (1) to (4) at concentrations ranging from 1 nM to 200 μM. After 24 h, mitochondrial activity was monitored in MTT colorimetric assay as described above (FIG. 3).

Structure (SMILES): COc1cc2ccnc(Nc3ccc(OC(F)(F)F)cc3)c2cc1OC [Example 1, 6,7-dimethoxy-N-(4-(trifluoromethoxy)phenyl)isoquinolin-1-amine]
- Lactate secretion [1]: significantly enhances lactate secretion
- 2DG uptake [2]: restored; also recorded: significantly enhances 2DG uptake
- Rotarod performance (latency before falling, 25 r.p.m.) (GLUT1-DS mice): increased rotarod performance
- IC50 (primary astrocytes): 34.4 µM
